Data published in US20150352108A1, “AMINO-PYRIMIDINE COMPOUNDS AS INHIBITORS OF TBK1 AND/OR IKK EPSILON” (Alzheimer's Institute of America, priority 2009, published 2015).

Experiments:
IKKε = target: T1, IKKε (Homo sapiens, UniProt Q14164); assay: In-vitro IKKε kinase assay ([γ33]ATP filter-plate); assay type: biochemical; conditions: text bins; read-out: IC50 for inhibition of the kinase activity of IKKε
T1 construct: His-tag; made in house; host or cells: Sf9 insect cells
T1 sequence (Q14164 1-716): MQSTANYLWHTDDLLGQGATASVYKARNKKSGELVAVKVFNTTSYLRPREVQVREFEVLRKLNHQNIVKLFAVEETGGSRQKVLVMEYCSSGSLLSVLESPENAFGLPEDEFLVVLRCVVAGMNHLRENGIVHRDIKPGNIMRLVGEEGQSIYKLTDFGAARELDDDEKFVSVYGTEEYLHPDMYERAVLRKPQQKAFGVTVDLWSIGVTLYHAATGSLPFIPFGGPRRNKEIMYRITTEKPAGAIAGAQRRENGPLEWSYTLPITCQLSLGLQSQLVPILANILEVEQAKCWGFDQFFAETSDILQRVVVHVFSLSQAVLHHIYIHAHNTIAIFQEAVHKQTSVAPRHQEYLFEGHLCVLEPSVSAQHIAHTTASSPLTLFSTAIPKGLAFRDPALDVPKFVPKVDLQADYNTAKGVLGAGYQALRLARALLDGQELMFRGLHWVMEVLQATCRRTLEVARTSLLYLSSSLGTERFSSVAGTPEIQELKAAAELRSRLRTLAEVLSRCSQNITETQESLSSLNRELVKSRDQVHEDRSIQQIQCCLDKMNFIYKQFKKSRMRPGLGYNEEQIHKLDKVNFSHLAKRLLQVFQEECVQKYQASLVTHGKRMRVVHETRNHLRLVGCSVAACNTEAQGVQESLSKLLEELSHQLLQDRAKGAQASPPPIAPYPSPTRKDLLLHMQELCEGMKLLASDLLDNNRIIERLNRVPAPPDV
Summary of the method: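 His-tagged IKKε and TBK1 from Sf9 cells were assayed with myelin basic protein or casein and [γ33]ATP at 2×Km ATP (32 μM for IKKε, 60 μM for TBK1). Enzyme was 0.1 or 0.015 μg/ml for IKKε and 0.1 or 0.02 μg/ml for TBK1 (normal/sensitized). Reactions ran 30-45 min, were filter-captured, scintillation-counted, and normalized to DMSO after background subtraction.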

[1] = tested on: IKKε-mediated phosphorylation of IRF3; assay: In-situ phosphorylation of IRF3 (pIRF3 Ser396 ELISA) in HEK293T cells cotransfected with IRF3 and IKKε; assay type: cell-based; conditions: Homo sapiens, HEK-293T; HEK293T cells, 20 hours, text bins; read-out: IC50 for inhibition of the in-situ IKKε-mediated phosphorylation of IRF3
Description: HEK293T cells were cotransfected in a 10-cm dish with IRF3 and IKKε expression plasmids using Lipofectamine 2000 (Invitrogen, Carlsbad, Calif.). The following day, cells were replated at 20,000 per well in 96-well plates and treated with test compounds (compounds according to Formula I) for 20 hours. Cell lysates were prepared and analyzed using an ELISA for phospho-Ser396 (anti-IRF3 capture antibody, Santa Cruz Biotechnology, Inc., Santa Cruz, Calif.; anti-p-Ser396 IRF3 detection antibody, Cell Signaling, Danvers, Mass.). pIRF3 levels in compound treated cells were normalized to DMSO treated cells (no compound). Cell viability was assayed in a parallel set of plates to monitor cytotoxic effects of the test compounds (CellTiter-Glo, Promega, Inc., Madison, Wis.). TBK1 activity was tested by Western blotting using a phospho-specific IRF7 antibody. Similar to above, HEK293T cells were transfected with IRF7 and TBK1 expression plasmids. Cells were seeded in 12-well plates at 150,000 per well and treated overnight with test compounds. Protein lysates were prepared and processed for Western blotting followed by detection using a phosphor-Ser477/Ser479 IRF7 antibody (BD Biosciences, San Jose, Calif.)

| SMILES | IC50 (IKKε) | IC50 [1] |
| --- | --- | --- |
| C[C@@H](O)C(=O)Nc1cccc(Nc2nccc(-c3ccc(OC4CCOCC4)c(C#N)c3)n2)c1 [compound 659, (2R)-N-[3-({4-[3-Cyano-4-(tetrahydro-2H-pyran-4-yloxy)phenyl]pyrimidin-2-yl}amino)phenyl]-2-hydroxypropanamide] | < 5 nM | 100 to 250 nM |
| N#Cc1cc(-c2ccnc(Nc3ccc(Cn4cnnn4)cc3)n2)ccc1OC1CCOCC1 [compound 629, 2-(Tetrahydro-2H-pyran-4-yloxy)-5-(2-{[4-(1H-tetrazol-1-ylmethyl)phenyl]amino}pyrimidin-4-yl)benzonitrile] | < 5 nM | < 100 nM |
| N#Cc1cc(-c2ccnc(Nc3ccc(N4CCN(CCO)CC4)cc3)n2)ccc1OC1CCOCC1 [compound 512, 5-[2-({4-[4-(2-hydroxyethyl)piperazin-1-yl]phenyl}amino)pyrimidin-4-yl]-2-(tetrahydro-2H-pyran-4-yloxy)benzonitrile] | < 5 nM | < 100 nM |
| COc1cc(Nc2nccc(-c3ccc(OC4CCOCC4)c(C#N)c3)n2)ccc1-n1cnnn1 [compound 664, 5-(2-{[3-Methoxy-4-(1H-tetrazol-1-yl)phenyl]amino}pyrimidin-4-yl)-2-(tetrahydro-2H-pyran-4-yloxy)benzonitrile] | < 5 nM | < 100 nM |
| N#Cc1cc(-c2ccnc(Nc3ccc4[nH]cnc4c3)n2)ccc1OC1CCOCC1 [compound 583, 5-[2-(1H-Benzimidazol-5-ylamino)pyrimidin-4-yl]-2-(tetrahydro-2H-pyran-4-yloxy)benzonitrile] | < 5 nM | 250 to 500 nM |
| CC(C)(O)C(=O)Nc1cccc(Nc2nccc(-c3ccc(OC4CCOCC4)c(C#N)c3)n2)c1 [compound 563, N-[3-({4-[3-Cyano-4-(tetrahydro-2H-pyran-4-yloxy)phentyl]pyrimidin-2-yl}amino)phenyl]-2-hydroxy-2-methylpropanamide] | < 5 nM | 100 to 250 nM |
| N#Cc1cc(-c2ccnc(Nc3ccc(F)c(OC4CCNC4)c3)n2)ccc1OC1CCOCC1 (stereo not shown) [compound 541, 5-(2-{[4-Fluoro-3-(pyrrolidin-3-yloxy)phenyl]amino}pyrimidin-4-yl)-2-(tetrahydro-2H-pyran-4-yloxy)benzonitrile] | < 5 nM | 100 to 250 nM |
| N#Cc1cc(-c2ccnc(Nc3ccc(S(N)(=O)=O)cc3)n2)ccc1OC1CCOCC1 [compound 564, 4-({4-[3-Cyano-4-(tetrahydro-2H-pyran-4-yloxy)phenyl]pyrimidin-2-yl}amino) benzenesulfonamide] | < 5 nM | 100 to 250 nM |
| N#Cc1cc(-c2ccnc(Nc3ccc(/C=C/CN4CCOCC4)cc3)n2)ccc1OC1CCOCC1 [compound 614, 5-[2-({4-[(1E)-3-(Morpholin-4-yl)prop-1-en-1-yl]phenyl}amino)pyrimidin-4-yl]-2-(tetrahydro-2H-pyran-4-yloxy)benzonitrile] | < 5 nM | 250 to 500 nM |
| Cc1cn(Cc2cccc(Nc3nccc(-c4ccc(O[C@@H]5CCN(C(=O)CO)C5)c(C#N)c4)n3)c2)cn1 [compound 662, 2-{[(3R)-1-(Hydroxyacetyl)pyrrolidin-3-yl]oxy}-5-[2-({3-[(4-methyl-1H-imidazol-1-yl)methyl]phenyl}amino)pyrimidin-4-yl]benzonitrile] | < 5 nM | < 100 nM |
| COc1cc(Nc2nccc(-c3ccc(OCC4CC4)c(C#N)c3)n2)ccc1CN1CC(OC)C1 [compound 617, 2-(Cyclopropylmethoxy)-5-[2-({3-methoxy-4-[(3-methoxyazetidin-1-yl)methyl]phenyl}amino)pyrimidin-4-yl]benzonitrile] | < 5 nM | 100 to 250 nM |
| CCN(CC)CCOc1cc(Nc2nccc(-c3ccc(OC4CCN(C(=O)[C@H](C)O)CC4)c(C#N)c3)n2)ccc1F [compound 577, 5-[2-({3-[2-(Diethylamino)ethoxy]-4-fluorophenyl}amino)pyrimidin-4-yl]-2-({1-[(2S)-2-hydroxypropanoyl]piperidin-4-yl}oxy)benzonitrile] | < 5 nM | 250 to 500 nM |
| Cc1cn(Cc2cccc(Nc3nccc(-c4ccc(OC5CCOCC5)c(C#N)c4)n3)c2)cn1 [compound 653, 5-[2-({3-[(4-Methyl-1H-imidazol-1-yl)methyl]phenyl}amino)pyrimidin-4-yl]-2-(tetrahydro-2H-pyran-4-yloxy)benzonitrile] | < 5 nM | < 100 nM |
| COC1CN(C(=O)Nc2cccc(Nc3nccc(-c4ccc(OC5CCOCC5)c(C#N)c4)n3)c2)C1 [compound 668, N-[3-({4-[3-Cyano-4-(tetrahydro-2H-pyran-4-yloxy)phenyl]pyrimidin-2-yl}amino)phenyl]-3-methoxyazetidine-1-carboxamide] | < 5 nM | 250 to 500 nM |
| COC1CN(Cc2ccc(Nc3nccc(-c4ccc(O[C@@H]5CCN(C(=O)CO)C5)c(C#N)c4)n3)cc2)C1 [compound 658, 2-{[(3R)-1-(Hydroxyacetyl)pyrrolidin-3-yl]oxy}-5-[2-({4-[(3-methoxyazetidin-1-yl)methyl]phenyl}amino)pyrimidin-4-yl]benzonitrile] | < 5 nM | 250 to 500 nM |
| N#Cc1cc(-c2ccnc(Nc3ccc(Cn4cncn4)cc3)n2)ccc1OC1CCOCC1 [compound 624, 2-(Tetrahydro-2H-pyran-4-yloxy)-5-(2-{[4-(1H-1,2,4-triazol-1-ylmethyl)phenyl]amino}pyrimidin-4-yl)benzonitrile] | < 5 nM | < 100 nM |
| N#Cc1cc(-c2nc(Nc3ccc(N4CCOCC4)cc3)ncc2F)ccc1OC1CCOCC1 [compound 592, 5-(5-Fluoro-2-{[4-(morpholin-4-yl)phenyl]amino}pyrimidin-4-yl)-2-(tetrahydro-2H-pyran-4-yloxy)benzonitrile] | < 5 nM | < 100 nM |
| COC1CN(C(C)c2ccc(Nc3nccc(-c4ccc(OC5CCOCC5)c(C#N)c4)n3)cc2)C1 (stereo not shown) [compound 571, 5-[2-({4-[1-(3-Methoxyazetidin-1-yl)ethyl]phenyl}amino)pyrimidin-4-yl]-2-(tetrahydro-2H-pyran-4-yloxy)benzonitrile] | < 5 nM | < 100 nM |
| N#Cc1cc(-c2ccnc(Nc3ccc(F)c(OCC4COCCN4)c3)n2)ccc1OC1CCOCC1 (stereo not shown) [compound 545] | < 5 nM | 250 to 500 nM |
| CN(C)CCNc1cccc(Nc2nccc(-c3ccc(OC4CCOCC4)c(C#N)c3)n2)c1 [compound 540, 5-{2-[(3-{[2-(Dimethylamino)ethyl]amino}phenyl)amino]pyrimidin-4-yl}-2-(tetrahydro-2H-pyran-4-yloxy)benzonitrile] | < 5 nM | < 100 nM |
